Results reported in patent publication US11690860B2, “Treatment of HCV infected patients with cirrhosis” (Atea Pharmaceuticals, Inc., priority 2018, dated 2023).
“Also recorded” adds a separate entry of the source. Read-outs that look alike come from different tables or passages of the source.

Assays:
HCV GT3 replicons = test: EC95 in replicons containing HCV constructs of clinical isolates, GT3; type: cell-based; conditions: HCV GT3, expressed as equivalents of metabolite 1-7
Protocol: (§1) For rapidly-replicating viruses such as HCV, maintenance of antiviral activity throughout inter-dose time intervals optimizes efficacy by reducing chances for recrudescent viral replication during inter-dose trough periods. […] In those cohorts receiving 600 mg QD, ˜30% of subjects achieved HCV RNA below the lower limit of quantitation with only seven days of therapy.

HCV GT2 replicons = test: EC95 in replicons containing HCV constructs of clinical isolates, GT2; type: cell-based; conditions: HCV GT2, expressed as equivalents of metabolite 1-7
Protocol: as §1

[1] = Plasma pharmacokinetics of Compound 1 and metabolite 1-7 (LC-MS/MS) in Parts C, D and E; type: in vivo, human; conditions: for AUC Day 1 (AUCinf for Compound 1) / Cmax / half-life / Tmax / AUC SS (AUCinf for Compound 1): n=6; for Cmax / half-life / Tmax: human, in vivo
Protocol: Doses were administered as the Compound 2 salt base. The free base Compound 1 equivalent is often given in parenthesis.
Part C was a randomized, double-blind, placebo-controlled MAD study divided into three cohorts. […] The dose escalation only proceeded following satisfactory review of the data.
HCV-infected patients were treatment-naïve with HCV RNA ≥5 log 10 IU/mL. HCV RNA was quantified using COBAS® AmpliPrep TaqMAN® v2.0 with LLQ of 15 IU/mL. Plasma drug levels were measured using LC-MS/MS. […] Cirrhosis was confirmed by prior liver biopsy or Fibroscan >12.5 kPa. […] Mean ages of enrolled subjects were 44, 39, and 56 years in the non-cirrhotic GT1b 600 mg dose cohort, non-cirrhotic GT3 cohort, and the cirrhotic cohort, respectively.
Plasma levels of metabolite 1-7 were measured using LC-MS/MS.

[2] = Part C, daily dosing for 7 days

Structure (SMILES): CNc1nc(N)nc2c1ncn2[C@@H]1O[C@H](CO[P@@](=O)(N[C@@H](C)C(=O)OC(C)C)Oc2ccccc2)[C@@H](O)[C@@]1(C)F [Compound 1, isopropyl((S)-(((2R,3R,4R,5R)-5-(2-amino-6-(methylamino)-9H-purin-9-yl)-4-fluoro-3-hydroxy-4-methyltetrahydrofuran-2-yl)methoxy)(phenoxy)phosphoryl)-L-alaninate]
- EC95 (HCV GT3 replicons): ~18 ng/mL
- EC95 (HCV GT2 replicons): ~12 ng/mL
- PK in cirrhotic compared with non-cirrhotic subjects ([1]; 600 mg QD of Compound 2, Parts C/D vs Part E): comparable
- dose proportionality of plasma exposure (peak and total) ([1]; Part C, 150 to 600 mg Compound 2): slightly more than dose proportional from 150 mg to 300 mg and mostly dose proportional thereafter
- AUC Day 1 (AUCinf for Compound 1) ([1]; Part C, NC GT1b, 150 mg/d Compound 2 QD): 492 ± 141 ng/mLxh
- AUC Day 1 (AUCinf for Compound 1) ([1]; Part C, NC GT1b, 300 mg/d Compound 2 QD): 1947 ± 1120 ng/mLxh
- AUC Day 1 (AUCinf for Compound 1) ([1]; Part C, NC GT1b, 600 mg/d Compound 2 QD): 3335 ± 1502 ng/mLxh
- accumulation [1, 2]: did not accumulate over time
- half-life (in words) [1, 2]: short half-life
- AUC Day 1 (AUCinf for Compound 1) ([1]; Part D, NC GT3, 600 mg/d Compound 2 QD): 3333 ± 1241 ng/mLxh
- AUC Day 1 (AUCinf for Compound 1) ([1]; Part E, Child-Pugh A cirrhotic, 600 mg/d Compound 2 QD): 3323 ± 1467 ng/mLxh
- absorption ([1]; after administration of Compound 2, fasted state): rapidly and well-absorbed; also recorded: quickly absorbed
- estimated fraction absorbed ([1]; based on urine recovery): ~50%
- Cmax ([1]; 150 mg/d, Part C, NC GT1b, 150 mg/d Compound 2 QD, read-out: Cmax Day 1): 573 ± 280 ng/mL
- half-life ([1]; 150 mg/d, Part C, NC GT1b, 150 mg/d Compound 2 QD, read-out: T1/2 Day 1 (converted)): 37.2 min
- Tmax ([1]; 150 mg/d, Part C, NC GT1b, 150 mg/d Compound 2 QD, read-out: Tmax Day 1): 30 min
- Cmax ([1]; 150 mg/d, steady state, Part C, NC GT1b, 150 mg/d Compound 2 QD, read-out: Cmax SS): 462 ± 409 ng/mL
- half-life ([1]; 150 mg/d, steady state, Part C, NC GT1b, 150 mg/d Compound 2 QD, read-out: T1/2 SS (converted)): 38.4 min
- Tmax ([1]; 150 mg/d, steady state, Part C, NC GT1b, 150 mg/d Compound 2 QD, read-out: Tmax SS): 60 min
- Cmax ([1]; 300 mg/d, Part C, NC GT1b, 300 mg/d Compound 2 QD, read-out: Cmax Day 1): 2280 ± 893 ng/mL
- half-life ([1]; 300 mg/d, Part C, NC GT1b, 300 mg/d Compound 2 QD, read-out: T1/2 Day 1 (converted)): 48 min
- Tmax ([1]; 300 mg/d, Part C, NC GT1b, 300 mg/d Compound 2 QD, read-out: Tmax Day 1): 30 min
- Cmax ([1]; 300 mg/d, steady state, Part C, NC GT1b, 300 mg/d Compound 2 QD, read-out: Cmax SS): 1830 ± 1310 ng/mL
- half-life ([1]; 300 mg/d, steady state, Part C, NC GT1b, 300 mg/d Compound 2 QD, read-out: T1/2 SS (converted)): 43.8 min
- Tmax ([1]; 300 mg/d, steady state, Part C, NC GT1b, 300 mg/d Compound 2 QD, read-out: Tmax SS): 30 min
- Cmax ([1]; 600 mg/d, Part C, NC GT1b, 600 mg/d Compound 2 QD, read-out: Cmax Day 1): 4210 ± 2300 ng/mL
- half-life ([1]; 600 mg/d, Part C, NC GT1b, 600 mg/d Compound 2 QD, read-out: T1/2 Day 1 (converted)): 51.6 min
- Tmax ([1]; 600 mg/d, Part C, NC GT1b, 600 mg/d Compound 2 QD, read-out: Tmax Day 1): 30 min
- Cmax ([1]; 600 mg/d, Part D, NC GT3, 600 mg/d Compound 2 QD, read-out: Cmax Day 1): 3970 ± 1940 ng/mL
- half-life ([1]; 600 mg/d, Part D, NC GT3, 600 mg/d Compound 2 QD, read-out: T1/2 Day 1 (converted)): 43.8 min
- Tmax ([1]; 600 mg/d, Part D, NC GT3, 600 mg/d Compound 2 QD, read-out: Tmax Day 1): 30 min
- Cmax ([1]; 600 mg/d, Part E, Child-Pugh A cirrhotic, 600 mg/d Compound 2 QD, read-out: Cmax Day 1): 3410 ± 2180 ng/mL
- half-life ([1]; 600 mg/d, Part E, Child-Pugh A cirrhotic, 600 mg/d Compound 2 QD, read-out: T1/2 Day 1 (converted)): 51.6 min
- Tmax ([1]; 600 mg/d, Part E, Child-Pugh A cirrhotic, 600 mg/d Compound 2 QD, read-out: Tmax Day 1): 30 min
- Cmax ([1]; 600 mg/d, steady state, Part C, NC GT1b, 600 mg/d Compound 2 QD, read-out: Cmax SS): 3600 ± 1740 ng/mL
- half-life ([1]; 600 mg/d, steady state, Part C, NC GT1b, 600 mg/d Compound 2 QD, read-out: T1/2 SS (converted)): 51 min
- Tmax ([1]; 600 mg/d, steady state, Part C, NC GT1b, 600 mg/d Compound 2 QD, read-out: Tmax SS): 30 min
- Cmax ([1]; 600 mg/d, steady state, Part D, NC GT3, 600 mg/d Compound 2 QD, read-out: Cmax SS): 4140 ± 2280 ng/mL
- half-life ([1]; 600 mg/d, steady state, Part D, NC GT3, 600 mg/d Compound 2 QD, read-out: T1/2 SS (converted)): 49.8 min
- Tmax ([1]; 600 mg/d, steady state, Part D, NC GT3, 600 mg/d Compound 2 QD, read-out: Tmax SS): 30 min
- Cmax ([1]; 600 mg/d, steady state, Part E, Child-Pugh A cirrhotic, 600 mg/d Compound 2 QD, read-out: Cmax SS): 3190 ± 2080 ng/mL
- half-life ([1]; 600 mg/d, steady state, Part E, Child-Pugh A cirrhotic, 600 mg/d Compound 2 QD, read-out: T1/2 SS (converted)): 48.6 min
- Tmax ([1]; 600 mg/d, steady state, Part E, Child-Pugh A cirrhotic, 600 mg/d Compound 2 QD, read-out: Tmax SS): 30 min
- AUC SS (AUCinf for Compound 1) ([1]; steady state, Part C, NC GT1b, 150 mg/d Compound 2 QD): 475 ± 301 ng/mLxh
- AUC SS (AUCinf for Compound 1) ([1]; steady state, Part C, NC GT1b, 300 mg/d Compound 2 QD): 1510 ± 976 ng/mLxh
- AUC SS (AUCinf for Compound 1) ([1]; steady state, Part C, NC GT1b, 600 mg/d Compound 2 QD): 4036 ± 2093 ng/mLxh
- AUC SS (AUCinf for Compound 1) ([1]; steady state, Part D, NC GT3, 600 mg/d Compound 2 QD): 3754 ± 2275 ng/mLxh
- AUC SS (AUCinf for Compound 1) ([1]; steady state, Part E, Child-Pugh A cirrhotic, 600 mg/d Compound 2 QD): 3527 ± 1605 ng/mLxh
